Laboratory results reported in ChEMBL document CHEMBL1146968, “Novel skeleton terpenes from Celastrus hypoleucus with anti-tumor activities” (Bioorg Med Chem Lett, 2006).
In brackets after ≈: the same amount, converted by molar mass.

Assays:
Type in all cases: functional, cell-based
SMMC-7721 = experiment: Antitumor activity against human SMMC7721 cell line by MTT assay
RKO = experiment: Antitumor activity against human RKO cell line by MTT assay
K562 = experiment: Antitumor activity against human K562 cell line by MTT assay
Bcap37 = experiment: Antitumor activity against human Bcap37 cell line by MTT assay

Row | IC50 (SMMC-7721) | IC50 (K562) | Compound | IC50 (RKO) | IC50 (Bcap37)
1 | 22.7 µg/mL (≈ 51.3 µM) | 11.2 µg/mL (≈ 25.3 µM) | CC1(C)CC[C@]2(C)CC[C@]3(C)C(=CC[C@@H]4[C@@]5(C)CC[C@H](O)C(C)(C)[C@@H]5[C@@H](O)C[C@]43C)C2C1 (some centres not stated) | 12.2 µg/mL (≈ 27.6 µM) | 14.6 µg/mL (≈ 32.9 µM)
2 | 2.44 µg/mL (≈ 7.3 µM) | 3.35 µg/mL (≈ 10 µM) | CO[C@@]12[C@H](COC(N)=O)C3=C(C(=O)C(C)=C(N)C3=O)N1C[C@@H]1N[C@@H]12 [MITOMYCIN] | 1.75 µg/mL (≈ 5.23 µM) | 2.33 µg/mL (≈ 6.97 µM)

Row | Compound | IC50 (SMMC-7721) | IC50 (K562) | IC50 (RKO) | IC50 (Bcap37)
3 | CC1=C(C)[C@@H]2CC(=O)c3cc(O)c(O)cc3[C@@]2(C)CC1 [CELAHYPODIOL] | 38 µg/mL (≈ 140 µM) | 16.2 µg/mL (≈ 59.5 µM) | 27.2 µg/mL (≈ 99.7 µM) | 24.4 µg/mL (≈ 89.7 µM)
